# Measured values reported in patent publication US9376382B2, “N-substituted isopropyldimethyl azulene sulfonamide derivatives, and preparation method and use thereof” (Sichuan Guokang Pharmaceutical Co., Ltd., priority 2011, dated 2016).
# Legend:
# [1] = system: ethanol-induced gastric ulcer; test: Anhydrous ethanol-induced gastric ulcer in mice; format: in vivo, Kunming mice; design: key to Gastri ulcer score (X ± SD) / Ulcer score (X ± SD) / Gastric ulcer score (X ± SD): summed pathology score: congestion 1, hemorrhage/erosion 1, linear erosion 3; conditions: for Inhibition rate (%) / Gastri ulcer score (X ± SD): Table 4; for Inhibition rate (%): inhibition rate of ulcer vs model group; for Gastri ulcer score (X ± SD): mice, intragastric once a day for five days, dose equimolar to azulene sulfonate sodium 3.0 mg/kg (Omeprazole 13.4 mg/kg), model group 13.00 ± 1.77; for anti-gastric ulcer effect in words: ethanol-induced gastric ulcer in mice, compared to the model group
# Protocol: Kunming mice, half male and half female, weighing 18-22 g, provided by the West China Animal Center
# (1) Azulene sodium sulphonate was added with 0.5% CMC to prepare a suspension with concentration of 0.15 mg/ml.
# (2) 20 mg of Omeprazole was added with 0.5% CMC to prepare a suspension with concentration of 0.67 mg/ml.
# Kunming mice were randomly grouped according the body weight (one model control group or negative control group, one Omeprazole control group or positive control group, one Azulene sodium sulphonate control group, twelve test drug groups), eight mice for each group, half male and half female.
# Administration: Model control group was administrated intragastrically with 0.5% CMC solution at a dose of 0.4 ml/20 g; Omeprazole control group was administrated intragastrically with Omeprazole at a dose of 0.4 ml/20 g, Azulene sodium sulphonate control group and each test drug groups were administrated intragastrically with their respective drug at a dose of 0.4 ml/20 g. The mice in each group were administrated once a day for successive five days. 0.5 hour after final administration, the mice in each group were administrated intragastrically with 0.5 ml of anhydrous ethanol, one hour later the mice were executed and dissected, and their stomaches were taken, washed and scored according to the pathological degree. For local congestion and rubefaction, score was 1; for petechial hemorrhage or erosion, score was respectively 1, for each linear erosion, score was 3. Statistical analysis was performed. Ulcer scores were calculated, significant differences between the groups were compared and the inhibition rates of ulcer were calculated [Inhibition rate of ulcer=(ulcer score of model group−ulcer score of drug administration group)/ulcer score of model group].
# [2] = Intense light irradiation test (4500LX ± 500LX), stability study; format: physicochemical; conditions: for Appearance Day 0: Day 0, cell wraps; for Appearance Day 0 / Appearance Day 5 / Appearance Day 10: first line given; for Appearance Day 5: Day 5, cell wraps; for Appearance Day 10: Day 10, cell wraps
# Protocol: (§1) The test samples were open-stored in “adjustable light boxes” under the conditions of illumination of 4500LX±500LX for 10 days, and taken and detected on Day 5 and Day 10 with regards to dry items. • The characteristics, especially colour change was observed. • Melting points were measured by an automatic melting point apparatus. • By self-reflection, TLC is used to observe whether the spot numbers were increased after 5 days and 10 days.
# [3] = Stability studies (light, humidity, heat), overall comparison; conditions: summary of high-temperature, high humidity and intense light tests
# Protocol: (§2) The test samples were open-stored in culture dishes at 60° C. for 10 days, and taken and detected on Day 5 and Day 10. • The characteristics, especially colour change were observed. • Melting points were measured by automatic melting point apparatus. • By self-reflection, TLC is used to observe whether the spot numbers were increased after 5 days and 10 days.
# (§3) The test samples were open-stored in closed constant humidity desiccators under the condition of 25° C. and relative humidity of 90%+5% for 10 days, and taken and detected on Day 5 and Day 10. Meanwhile, each sample was accurately weighed before and after test.
# as §1
# [4] = High humidity test (25° C., relative humidity 90% ± 5%), stability study; format: physicochemical; conditions: RH 90% ± 5%; for Appearance Day 0: Day 0, cell wraps; for Appearance Day 0 / Appearance Day 5 / Appearance Day 10: first line given; for Appearance Day 5: Day 5, cell wraps; for Appearance Day 10: Day 10, cell wraps;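 for all read-outs here: samples kept uncovered in sealed humidity desiccators, appearance judged mainly by colour change, melting point on an automatic apparatus, TLC checked for extra spots versus start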
# Protocol: as §3
# The characteristics, especially colour change was observed.
# Melting points were measured by an automatic melting point apparatus.
# By self-reflection, TLC is used to observe whether the spot numbers were increased after 5 days and 10 days.
# [5] = High-temperature test (60° C.), stability study; format: physicochemical; conditions: open-stored; for Appearance Day 5: Day 5, cell wraps; for Appearance Day 5 / Appearance Day 10: first line given; for Appearance Day 10: Day 10, cell wraps;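 for all read-outs here: samples kept uncovered in dishes at 60 °C for up to 10 days and examined on Day 5 and Day 10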
# Protocol: as §2
melting point,Spot numbers on TLC Day 0 ([2]; Day 0),Appearance Day 0 [2],Spot numbers on TLC Day 5 ([2]; Day 5),Appearance Day 5 [2],Spot numbers on TLC Day 10 ([2]; Day 10),Appearance Day 10 [2],Melting point Day 0 [4],Spot numbers on TLC Day 0 [4],hygroscopic rate (%) Day 0 [4],Appearance Day 0 [4],Melting point Day 5 [4],Spot numbers on TLC Day 5 [4],hygroscopic rate (%) Day 5 [4],Appearance Day 5 [4],Melting point Day 10 [4],Structure (SMILES),Inhibition rate (%) [1],Gastri ulcer score (X ± SD) [1],anti-gastric ulcer effect in words [1],"light, humidity and heat stability in words [3]",further results
114 to 116 °C,1,purple,1,purple,1,purple,114.0-115.5 °C,1,0.97%,purple,114.0-115.5 °C,1,1.24%,purple,114.0-115.5 °C,"COc1ccc(NS(=O)(=O)c2cc(C)c3cc(C(C)C)ccc(C)c2-3)c(OC)c1 [4b, N-(2,4-dimethoxyphenyl)-3,8-dimethyl-5-isopropyl-1-azulene sulfonamide]",52.77%,6.14 ± 2.85,significantly relieve the pathological degree,"better light, humidity and heat stability than azulene sulfonate sodium",Spot numbers on TLC Day 10 [4]: 1; Appearance Day 10 [4]: purple; Melting point Day 0 [5]: 114.0-115.5 °C; Spot numbers on TLC Day 0 [5]: 1; Melting point Day 5 [5]: 114.5-116.0 °C; Spot numbers on TLC Day 5 [5]: 1; Appearance Day 5 [5]: purple; Melting point Day 10 [5]: 113.5-115.0 °C; Spot numbers on TLC Day 10 [5]: 1; Appearance Day 10 [5]: purple
140 to 142 °C,1,purple,1,purple,1,purple,140.0-142.5 °C,1,1.23%,purple,140.0-142.5 °C,1,1.61%,purple,140.0-142.5 °C,"Cc1cc(S(=O)(=O)Nc2cccc3ccccc23)c2c(C)ccc(C(C)C)cc1-2 [4d, N-(1-naphthyl)-3,8-dimethyl-5-isopropyl-1-azulene sulfonamide]",50.54%,6.43 ± 2.99,significantly relieve the pathological degree,"better light, humidity and heat stability than azulene sulfonate sodium",Melting point Day 0 ([2]; Day 0): 140.0-142.5 °C; Melting point Day 5 ([2]; Day 5): 141.5-143.0 °C; Melting point Day 10 ([2]; Day 10): 140.0-142.0 °C; Spot numbers on TLC Day 10 [4]: 1; Appearance Day 10 [4]: purple; Melting point Day 0 [5]: 140.0-142.5 °C; Spot numbers on TLC Day 0 [5]: 1; Melting point Day 5 [5]: 141.5-142.5 °C; Spot numbers on TLC Day 5 [5]: 1; Appearance Day 5 [5]: purple; Melting point Day 10 [5]: 140.0-142.5 °C; Spot numbers on TLC Day 10 [5]: 1; Appearance Day 10 [5]: purple
